Where only a bound is given, the exact number is not on record here.

The first assay relates to HBV. Nature of the assay: HBV-DNA Antiviral Assay Using HepG2.2.15 Cells (extracellular HBV DNA by qPCR). It is filed as cell-based. The settings on record: Hepatitis B virus, 168 h; HBV DNA inhibition, HepG2.2.15 cells, extracellular HBV DNA by qPCR on day 7; read-out: EC50. On the procedure:
The following assay procedure describes the HBV antiviral assay. This assay uses HepG2.2.15 cells, which have been transfected with HBV genome, and extracellular HBV DNA quantification as endpoint. Cell viability is assessed in parallel by measuring the intracellular ATP content using the CellTiter-Glo© reagent from Promega.
On day 0, HepG2.2.15 cells were seeded in 96-well plates at a density of 6.0×10^4 cells/well (0.1 mL/well). The cells were incubated at 37° C. and 5% CO2.
On day 1, the test articles were diluted and added to cell culture wells (8 concentrations, 4-fold dilution, in duplicate). GLS4, Tenofovir and Sorafenib were used as reference compounds. 100 μL of culture medium containing the compounds was added to the plate, and the final total volume per well was 200 μL. The final concentration of DMSO in the culture medium was 0.5%. The plate map of compound treatment is shown below. The cells were cultured at 37° C. and 5% CO2 for 3 days.
On day 4, the plates were refreshed with culture media with compounds.
On day 7, cell viability was assessed using the CellTiter-Glo, and the cell culture supernatants were collected for determination of HBV DNA by qPCR.
Extracellular DNA was isolated with QIAamp 96 DNA Blood Kit per the manufacturer's manual. HBV DNA was then quantified by qPCR with HBV specific primers and probes as specified in Table 1 using the FastStart Universal MasterMix from Roche on an ABI-7900HT. The PCR cycle program consisted of 95° C. for 10 min, followed by 40 cycles at 95° C. for 15 sec and 60° C. for 1 min.
A DNA standard was prepared by dilution of the pAAV2 HBV1.3 plasmid with concentrations ranging from 10 to 1×10^7 copies/μL and used to generate a standard curve by plotting Ct value vs. the concentration of the HBV plasmid DNA standard. The quantity of HBV DNA in each sample was determined by interpolating from the standard curve.
Cell viability was calculated as follows: % Cell viability=(luminescence value of test sample−average luminescence value of blank)/(average luminescence value of 0.5% DMSO control−average luminescence of blank)×100%. HBV DNA inhibition was calculated as follows: 100-(HBV DNA copy number of test sample−HBV DNA copy number of ETV)/HBV DNA copy number of 0.5% DMSO control−HBV DNA copy number of ETV)×100%. The CC50, EC50 and EC90 values were determined by dose-response curves fitted by GraphPad Prism using “log (agonist) vs. response—Variable slope”.
(Quantitative PCR measures a nucleic acid by following its amplification.)
As usually defined, the EC50 is the concentration that produces a half-maximal response. Turning to `C[C@@H]1Cn2c(c(C(=O)NCc3ccccc3-c3ncccn3)n(-c3ccc(-n4cccn4)cc3)c2=O)CN1C(=O)c1ccc(Br)c(C#N)c1` (stereo in doubt) [Example 470, rac-(6R)-7-(4-bromo-3-cyano-benzoyl)-6-methyl-3-oxo-2-(4-pyrazol-1-ylphenyl)-N-[(2-pyrimidinn-2-ylphenyl)methyl]-6,8-dihydro-5H-imidazo[1,5-a]yrazine-1-carboxamide], the EC50 was 100 to 500 nM.

`C[C@H]1Cn2c(c(C(=O)NCc3ccccc3-c3ncccn3)n(-c3ccc(-n4cccn4)cc3)c2=O)CN1C(=O)c1ccc(Br)c(C#N)c1` (stereo in doubt) [Example 471, rac-(6S)-7-(4-bromo-3-cyano-benzoyl)-6-methyl-3-oxo-2-(4-pyrazol-1-ylphenyl)-N-[(2-pyrimidin-2-ylphenyl)methyl]-6,8-dihydro-5H-imidazo[1,5-a]pyrazine-1-carboxamide]: the EC50 lay in the range of 500 to 5000 nM.

As for `COc1ccc(CN2CCCn3c(c4n(c3=O)CCN(C(=O)Nc3ccc(F)c(Cl)c3)C4)C2=O)cc1` [Example 4, N-(3-chloro-4-fluorophenyl)-11-(4-methoxybenzyl)-6,12-dioxo-1,3,4,8,9,10,11,12-octahydro-2H,6H-pyrazino[1′,2′:3,4]imidazo[1,5-a][1,4]diazepine-2-carboxamide], the EC50 was < 100 nM.

In the case of `O=C1NCCCn2c1c1n(c2=O)CCN(C(=O)Nc2ccc(F)c(Cl)c2)C1` [Example 1, N-(3-chloro-4-fluorophenyl)-6,12-dioxo-1,3,4,8,9,10,11,12-octahydro-2H,6H-pyrazino[1′,2′:3,4]imidazo[1,5-a][1,4]diazepine-2-carboxamide], the EC50 is > 5000 nM.

`C[C@@H](NC(=O)c1c2n(c(=O)n1-c1ccc(-n3cccn3)cc1)C[C@H](C)N(C(=O)c1ccc(Br)c(Cl)c1)C2)c1ccccc1` (mixture of isomers) [Example 467, (6SR)-7-(4-bromo-3-chloro-benzoyl)-6-methyl-3-oxo-N-[(1R)-1-phenylethyl]-2-(4-pyrazol-1-ylphenyl)-6,8-dihydro-5H-imidazo[1,5-a]pyrazine-1-carboxamide]: the EC50 was in the range of 100 to 500 nM.

For `COc1ccc(CN2CCn3c(c4n(c3=O)CCN(C(=O)Nc3ccc(F)c(Cl)c3)C4)C2=O)cc1` [Example 17, N-(3-chloro-4-fluoro-phenyl)-12-[(4-methoxyphenyl)methyl]-8,13-dioxo-4,7,9,12-tetrazatricyclo[7.4.0.0^2,7]tridec-1-ene-4-carboxamide], the EC50 was > 5000 nM.

As for `CC(C)NC(=O)c1c2n(c(=O)n1-c1ccccc1)CCN(C(=O)Nc1ccc(F)c(Cl)c1)C2` [Example 10, N^7-(3-chloro-4-fluorophenyl)-3-oxo-2-phenyl-N1-(propan-2-yl)-2H,3H,5H,6H,7H,8H-imidazo[1,5-a]pyrazine-1,7-dicarboxamide], the EC50 lay within 500 to 5000 nM.

Take `COc1ccc(CNC(=O)c2c3n(c(=O)n2-c2ccccc2)CCN(C(=O)Nc2ccc(F)c(Cl)c2)C3)cc1` [Example 11, N^7-(3-chloro-4-fluorophenyl)-N1-[(4-methoxyphenyl)methyl]-3-oxo-2-phenyl-2H,3H,5H,6H,7H,8H-imidazo[1,5-a]pyrazine-1,7-dicarboxamide]: the 50% effective concentration (EC50) was 100 to 500 nM.

With `CC1Cn2c(c(C(=O)NCc3ccccc3-c3ncccn3)n(-c3ccc(-n4cccn4)cc3)c2=O)CN1C(=O)c1ccc(Br)c(Cl)c1` (racemic) [Example 468, rac-(6R)-7-(4-bromo-3-chloro-benzoyl)-6-methyl-3-oxo-2-(4-pyrazol-1-ylphenyl)-N-[(2-pyrimidin-2-ylphenyl)methyl]-6,8-dihydro-5H-imidazo[1,5-a]pyrazine-1-carboxamide], the EC50 is 100 to 500 nM.

Take `O=C1NCCCn2c1c1n(c2=O)CCN(C(=O)c2ccc(Br)c(Cl)c2)C1` [Example 7, 2-(4-bromo-3-chlorobenzoyl)-1,2,3,4,8,9,10,11-octahydro-6H,12H-pyrazino[1′,2′:3,4]imidazo[1,5-a][1,4]diazepine-6,12-dione]: the EC50 was > 5000 nM.

For `O=C1NCCCn2c1c1n(c2=O)CCN(C(=O)c2ccc(Br)cc2)C1` [Example 5, 4-(4-bromobenzoyl)-4,7,9,13-tetraazatricyclo[7.5.0.0^[2,7]]tetradec-1-ene-8,14-dione], the EC50 was > 5000 nM.

With `COc1ccc(CN2CCCn3c(c4n(c3=O)CCN(C(=O)c3ccc(Br)c(Cl)c3)C4)C2=O)cc1` [Example 9, 2-(4-bromo-3-chlorobenzoyl)-11-(4-methoxybenzyl)-1,2,3,4,8,9,10,11-octahydro-6H,12H-pyrazino[1′,2′:3,4]imidazo[1,5-a][1,4]diazepine-6,12-dione], the EC50 lay within 100 to 500 nM.

The next assay concerns HBV. Nature of the assay: HBV-DNA Antiviral Assay Using HepG2.117 Cells (intracellular HBV DNA by qPCR). Type of assay: cell-based, hepatitis B virus (genotype D). The settings on record: Hepatitis B virus, HepG2.117. Put shortly: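 HepG2.117 cells (genotype D HBV, Tet-off) were induced by doxycycline withdrawal and treated for 3 days with 9 concentrations in 4-fold dilution, 2% DMSO final. Intracellular HBV DNA was measured by qPCR against a standard curve, with ATPlite viability read in parallel. EC50, EC90 and CC50 came from fits against the DMSO control.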
On to `COc1ccc([C@@H](C)NC(=O)c2c3n(c(=O)n2-c2ccc(OC(C)C)cc2)CCN(C(=O)c2ccc(Br)c(Cl)c2)C3)c(F)c1` (stereo in doubt) [Example 245, 7-(4-bromo-3-chloro-benzoyl)-2-(4-isopropoxyphenyl)-3-oxo-N-[rac-(1R)-1-(2-fluoro-4-methoxy-phenyl)ethyl]-6,8-dihydro-5H-imidazo[1,5-a]pyrazine-1-carboxamide], for which the EC50 was < 100 nM.

`CC(C)Oc1ccc(-n2c(C(=O)NCc3ccccc3)c3n(c2=O)CCN(C(=O)/C=C/c2ccccc2Cl)C3)cc1` [Example 216, N-benzyl-7-[(E)-3-(2-chloropehnyl)prop-2-enoyl]-2-(4-isopropoxyphenyl)-3-oxo-6,8-dihydro-5H-imidazo[1,5-a]pyrazine-1-carboxamide]: the EC50 was > 5000 nM.

For `COc1ccc(-n2c(C(=O)NCc3ccncc3)c3n(c2=O)CCN(C(=O)c2ccc(Cl)c(Cl)c2)C3)cc1` [Example 57, 7-(3,4-dichlorobenzoyl)-2-(4-methoxyphenyl)-3-oxo-N-(4-pyridylmethyl)-6,8-dihydro-5H-imidazo[1,5-a]pyrazine-1-carboxamide], the EC50 is > 5000 nM.

For `COc1ccc(-n2c(C(=O)N[C@@H]3CCc4cc(OC)ccc43)c3n(c2=O)CCN(C(=O)c2ccc(Br)c(Cl)c2)C3)cc1` (stereo in doubt) [Example 99, 7-(4-bromo-3-chloro-benozyl)-2-(4-methoxyphenyl)-3-oxo-N-[rac-(1R)-5-methoxyindazin-1-yl]-6,8-dihydro-5H-imidazo[1,5-a]pyrazine-1-carboxamide], the EC50 lay within 500 to 5000 nM.

`O=C(NCc1ccccc1)c1c2n(c(=O)n1-c1ccc3nonc3c1)CCN(C(=O)c1ccc(Br)c(Cl)c1)C2` [Example 389, 2-(2,1,3-benzoxadiazol-5-yl)-N-benzyl-7-(4-bromo-3-chloro-benzoyl)-3-oxo-6,8-dihydro-5H-imidazo[1,5-a]pyrazine-1-carboxamide] returned an EC50 of 500 to 5000 nM.

Take `O=C(NCc1ccccc1-c1cnccn1)c1c2n(c(=O)n1-c1ccc(OCC(F)(F)F)cc1)CCN(C(=O)c1ccc(Br)c(Cl)c1)C2` [Example 402, 7-(4-bromo-3-chloro-benzoyl)-3-oxo-N-[(2-pyrazin-2-ylphenyl)methyl]-2-[4-(2,2,2-trifluoroethoxy)phenyl]-6,8-dihydro-5H-imidazo[1,5-a]pyrazine-1-carboxamide]: the EC50 is < 100 nM.

As to `O=C(NCc1ccccc1-c1nnco1)c1c2n(c(=O)n1-c1ccc(OC3CC3)cc1)CCN(C(=O)c1ccc(Br)c(Cl)c1)C2` [Example 434, 7-(4-bromo-3-chloro-benzoyl)-2-[4-(cyclopropoxy)phenyl]-N-[[2-(1,3,4-oxadiazol-2-yl)phenyl]methyl]-3-oxo-6,8-dihydro-5H-imidazo[1,5-a]pyrazine-1-carboxamide], the EC50 was < 100 nM.

`COc1ccc(-n2c(C(=O)NCc3ccc(OC)cc3C3CC3)c3n(c2=O)CCN(C(=O)c2ccc(Br)c(Cl)c2)C3)cc1` [Example 210, 7-(4-bromo-3-chloro-benozyl)-N-[(2-cyclopropyl-4-methoxy-phenyl)methyl]-2-(4-methoxyphenyl)-3-oxo-6,8-dihydro-5H-imidazo[1,5-a]pyrazine-1-carboxamide] yielded an EC50 of 100 to 500 nM.

As for `COc1ccc(-n2c(C(=O)NCc3ccc4[nH]ncc4c3)c3n(c2=O)CCN(C(=O)c2ccc(Cl)c(Cl)c2)C3)cc1` [Example 107, 7-(3,4-dichlorobenzoyl)-N-(1H-indazol-5-ylmethyl)-2-(4-methoxyphenyl)-3-oxo-6,8-dihydro-5H-imidazo[1,5-a]pyrazine-1-carboxamide], the EC50 lay in the range of 500 to 5000 nM.

Source of the values: patent US11591341B2 (ALIGOS THERAPEUTICS, INC., priority 2019, dated 2023).
